Source: patent US20200024278A1, “COMPOSITION COMPRISING ANTIBIOTIC COMPOUND AND AN HETEROCYCLIC COMPOUND AND THEIR USE IN PREVENTING OR TREATING BACTERIAL INFECTIONS” (MUTABILIS, priority 2016, published 2020)

Experiments:
Assay in all cases: MIC, broth microdilution (CLSI), substance alone or ATB combined with compound at 4 or 8 μg/mL
ECL P99 = format: cell-based, E. cloacae; conditions: ECL P99
Outline: (§1)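 Growth inhibition endpoint, read visually after 16-20 h at 35° C in ambient air. Cation-adjusted Mueller-Hinton broth, inoculum 5·10^5 CFU/mL, CLSI M7-A7 protocol.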

PAE UFR90 = format: cell-based, P. aeruginosa; conditions: PAE UFR90
Outline: as §1

PAE 105250 = format: cell-based, P. aeruginosa; conditions: PAE 105250
Outline: as §1

PAE UFR48 = format: cell-based, P. aeruginosa; conditions: PAE UFR48
Outline: as §1

SAU 29213 = format: cell-based, S. aureus; conditions: SAU 29213
Outline: as §1

SPN 49619 = format: cell-based, S. pneumoniae; conditions: SPN 49619
Outline: as §1

Compound: C[C@@H](O)[C@H]1C(=O)N2C(C(=O)O)=C(SCCN=CN)C[C@H]12 [IMI]
- MIC ATB combined with Example 11 @8 μg/ml (ECL P99; with Example 11 at 8 μg/ml): <0.031 µg/mL
- MIC ATB combined with Example 12 @8 μg/ml (ECL P99; with Example 12 at 8 μg/ml): <0.031 µg/mL
- MIC ATB combined with Example 13 @8 μg/ml (ECL P99; with Example 13 at 8 μg/ml): 0.063 µg/mL
- MIC ATB combined with Example 14 @8 μg/ml (ECL P99; with Example 14 at 8 μg/ml): <0.031 µg/mL
- MIC ATB combined with Example 15 @4 μgml (ECL P99; with Example 15 at 4 μg/ml): <0.031 µg/mL
- MIC ATB combined with Example 16 @4 μg/ml (ECL P99; with Example 16 at 4 μg/ml): <0.031 µg/mL
- MIC ATB alone (PAE UFR90; antibiotic alone): 2 µg/mL
- MIC ATB combined with Example 1 @8 μg/ml (PAE UFR90; with Example 1 @8 μg/ml): <0.031 µg/mL
- MIC ATB combined with Example 1 @8 μg/ml (PAE UFR90; with Example 1 at 8 μg/ml): <0.031 µg/mL
- MIC ATB combined with Example 7 @8 μgml (PAE UFR90; with Example 7 at 8 μg/ml): 32 µg/mL
- MIC ATB combined with Example 9 @4 μg/ml (PAE UFR90; with Example 9 @4 μg/ml): 1 µg/mL
- MIC ATB combined with Example 9 @4 μg/ml (PAE UFR90; with Example 9 at 4 μg/ml): 1 µg/mL
- MIC ATB combined with Example 11 @8 μg/ml (PAE UFR90; with Example 11 at 8 μg/ml): 1 µg/mL
- MIC ATB combined with Example 12 @8 μg/ml (PAE UFR90; with Example 12 at 8 μg/ml): 2 µg/mL
- MIC ATB combined with Example 13 @8 μg/ml (PAE UFR90; with Example 13 at 8 μg/ml): 16 µg/mL
- MIC ATB combined with Example 14 @8 μg/ml (PAE UFR90; with Example 14 at 8 μg/ml): 2 µg/mL
- MIC ATB combined with Example 15 @4 μgml (PAE UFR90; with Example 15 at 4 μg/ml): 2 µg/mL
- MIC ATB combined with Example 16 @4 μg/ml (PAE UFR90; with Example 16 at 4 μg/ml): 4 µg/mL
- MIC ATB alone (PAE 105250; antibiotic alone): 1 µg/mL
- MIC ATB combined with Example 1 @8 μg/ml (PAE 105250; with Example 1 @8 μg/ml): <=0.031 μg/mL
- MIC ATB combined with Example 1 @8 μg/ml (PAE 105250; with Example 1 at 8 μg/ml): <=0.031 μg/mL
- MIC ATB combined with Example 7 @8 μgml (PAE 105250; with Example 7 at 8 μg/ml): 16 µg/mL
- MIC ATB combined with Example 9 @4 μg/ml (PAE 105250; with Example 9 @4 μg/ml): 1 µg/mL
- MIC ATB combined with Example 9 @4 μg/ml (PAE 105250; with Example 9 at 4 μg/ml): 1 µg/mL
- MIC ATB combined with Example 11 @8 μg/ml (PAE 105250; with Example 11 at 8 μg/ml): 1 µg/mL
- MIC ATB combined with Example 12 @8 μg/ml (PAE 105250; with Example 12 at 8 μg/ml): 2 µg/mL
- MIC ATB combined with Example 13 @8 μg/ml (PAE 105250; with Example 13 at 8 μg/ml): 8 µg/mL
- MIC ATB combined with Example 14 @8 μg/ml (PAE 105250; with Example 14 at 8 μg/ml): 2 µg/mL
- MIC ATB combined with Example 15 @4 μgml (PAE 105250; with Example 15 at 4 μg/ml): 2 µg/mL
- MIC ATB combined with Example 16 @4 μg/ml (PAE 105250; with Example 16 at 4 μg/ml): 2 µg/mL
- MIC ATB alone (PAE UFR48; antibiotic alone): 8 µg/mL
- MIC ATB combined with Example 1 @8 μg/ml (PAE UFR48; with Example 1 @8 μg/ml): <0.031 µg/mL
- MIC ATB combined with Example 1 @8 μg/ml (PAE UFR48; with Example 1 at 8 μg/ml): <0.031 µg/mL
- MIC ATB combined with Example 7 @8 μgml (PAE UFR48; with Example 7 at 8 μg/ml): >32 µg/mL
- MIC ATB combined with Example 9 @4 μg/ml (PAE UFR48; with Example 9 @4 μg/ml): 8 µg/mL
- MIC ATB combined with Example 9 @4 μg/ml (PAE UFR48; with Example 9 at 4 μg/ml): 16 µg/mL
- MIC ATB combined with Example 11 @8 μg/ml (PAE UFR48; with Example 11 at 8 μg/ml): >32 µg/mL
- MIC ATB combined with Example 12 @8 μg/ml (PAE UFR48; with Example 12 at 8 μg/ml): >32 µg/mL
- MIC ATB combined with Example 13 @8 μg/ml (PAE UFR48; with Example 13 at 8 μg/ml): >32 µg/mL
- MIC ATB combined with Example 14 @8 μg/ml (PAE UFR48; with Example 14 at 8 μg/ml): >32 µg/mL
- MIC ATB combined with Example 15 @4 μgml (PAE UFR48; with Example 15 at 4 μg/ml): >32 µg/mL
- MIC ATB combined with Example 16 @4 μg/ml (PAE UFR48; with Example 16 at 4 μg/ml): >32 µg/mL
- MIC ATB alone (SAU 29213; antibiotic alone): 0.016 µg/mL
- MIC ATB combined with Example 1 @8 μg/ml (SAU 29213; with Example 1 @8 μg/ml): <=0.031 μg/mL
- MIC ATB combined with Example 1 @8 μg/ml (SAU 29213; with Example 1 at 8 μg/ml): <=0.031 μg/mL
- MIC ATB combined with Example 7 @8 μgml (SAU 29213; with Example 7 at 8 μg/ml): 0.25 µg/mL
- MIC ATB combined with Example 9 @4 μg/ml (SAU 29213; with Example 9 @4 μg/ml): <0.031 µg/mL
- MIC ATB combined with Example 9 @4 μg/ml (SAU 29213; with Example 9 at 4 μg/ml): <0.031 µg/mL
- MIC ATB combined with Example 11 @8 μg/ml (SAU 29213; with Example 11 at 8 μg/ml): <0.031 µg/mL
- MIC ATB combined with Example 12 @8 μg/ml (SAU 29213; with Example 12 at 8 μg/ml): <0.031 µg/mL
- MIC ATB combined with Example 13 @8 μg/ml (SAU 29213; with Example 13 at 8 μg/ml): <=0.031 μg/mL
- MIC ATB combined with Example 14 @8 μg/ml (SAU 29213; with Example 14 at 8 μg/ml): <0.031 µg/mL
- MIC ATB combined with Example 15 @4 μgml (SAU 29213; with Example 15 at 4 μg/ml): <0.031 µg/mL
- MIC ATB combined with Example 16 @4 μg/ml (SAU 29213; with Example 16 at 4 μg/ml): <0.031 µg/mL
- MIC ATB alone (SPN 49619; antibiotic alone): 0.063 µg/mL
- MIC ATB combined with Example 1 @8 μg/ml (SPN 49619; with Example 1 @8 μg/ml): <=0.031 μg/mL
- MIC ATB combined with Example 1 @8 μg/ml (SPN 49619; with Example 1 at 8 μg/ml): <=0.031 μg/mL
- MIC ATB combined with Example 7 @8 μgml (SPN 49619; with Example 7 at 8 μg/ml): <=0.031 μg/mL
- MIC ATB combined with Example 9 @4 μg/ml (SPN 49619; with Example 9 @4 μg/ml): <0.031 µg/mL
- MIC ATB combined with Example 9 @4 μg/ml (SPN 49619; with Example 9 at 4 μg/ml): <0.031 µg/mL
- MIC ATB combined with Example 11 @8 μg/ml (SPN 49619; with Example 11 at 8 μg/ml): <=0.031 μg/mL
- MIC ATB combined with Example 12 @8 μg/ml (SPN 49619; with Example 12 at 8 μg/ml): <0.031 µg/mL
- MIC ATB combined with Example 13 @8 μg/ml (SPN 49619; with Example 13 at 8 μg/ml): <=0.031 μg/mL
- MIC ATB combined with Example 14 @8 μg/ml (SPN 49619; with Example 14 at 8 μg/ml): <0.031 µg/mL
- MIC ATB combined with Example 15 @4 μgml (SPN 49619; with Example 15 at 4 μg/ml): <0.031 µg/mL
- MIC ATB combined with Example 16 @4 μg/ml (SPN 49619; with Example 16 at 4 μg/ml): <0.031 µg/mL
